Converted amounts (≈) assume the structure as drawn.

7 molecules from ChEMBL document CHEMBL4808184, “Discovery and Optimization of DNA Gyrase and Topoisomerase IV Inhibitors with Potent Activity against Fluoroquinolone-Resistant Gram-Positive Bacteria” (J Med Chem, 2021) can be followed below.

One data set concerns HepG2. Put plainly: cells. To be noted: Homo sapiens, HepG2, 72 h.
A further data set concerns K562. Put plainly: cells. Conditions: Homo sapiens, K562, 72 h.
Data set [1] can be described thus: in vivo. Conditions: rat, iv, 3.35 mg/kg.
Data set [2] is described as follows: in vivo. To be noted: rat, iv, 3.35 mg/kg. This is another data set of the same source.
The nature of data set [3]: in vivo. Conditions: rat, po, 3.35 mg/kg.
Data set [4] can be described thus: in vivo. Conditions: rat, po, 3.35 mg/kg. This is another data set of the same source.
Data set [5] is described as follows: in vivo. Conditions: rat, po, 3.35 mg/kg. The source holds these as a separate data set.
The nature of data set [6]: in vivo. To be noted: rat, po, 3.35 mg/kg. This is another data set of the same source.
Data set [7] in a line: physchem. To be noted: octanol/water, pH 7.4.
A short description of data set [8]: physchem.
Data set [9] can be described thus: in vitro. To be noted: CD1, mouse, plasma.
Data set [10] in a line: in vitro. To be noted: Sprague-Dawley, rat, plasma.
The nature of data set [11]: in vitro. Conditions: human, plasma.
Data set [12] can be described thus: physchem. Conditions: buffer, pH 7.
Data set [13] in a line: in vitro. To be noted: human, Caco-2.
Data set [14] can be described thus: in vitro. Conditions: human, Caco-2. The source holds these as a separate data set.
In data set [15] the test system is Staphylococcus aureus. Put plainly: microbe, parasite or virus in culture. To be noted: ATCC 49951.
For data set [16], the system named is Staphylococcus aureus. Put plainly: microbe, parasite or virus in culture. To be noted: ATCC 49951. The source holds these as a separate data set.
The test system of data set [17] is Staphylococcus aureus. Put plainly: microbe, parasite or virus in culture. To be noted: ATCC 49951. This is another data set of the same source.
The test system of the next data set is Enterococcus faecalis. Put plainly: microbe, parasite or virus in culture. To be noted: ATCC 29212.
The next data set has as its system Streptococcus pneumoniae. Put plainly: microbe, parasite or virus in culture. To be noted: ATCC 49619.
Data set [18] is described as follows: in vivo. To be noted: rat, 5 mg/kg.
A short description of data set [19]: in vivo. To be noted: rat, 5 mg/kg. The source holds these as a separate data set.
The nature of data set [20]: in vivo. Conditions: rat, iv.
The nature of data set [21]: in vivo. Conditions: rat, po, 5 mg/kg.
Data set [22] is described as follows: in vivo. Conditions: rat, po, 5 mg/kg. The source holds these as a separate data set.
Data set [23] is described as follows: in vivo. To be noted: rat, po, 5 mg/kg. The source holds these as a separate data set.
A short description of data set [24]: in vivo. To be noted: rat, po, 5 mg/kg. This is another data set of the same source.
Data set [25] in a line: physchem. This is another data set of the same source.
The nature of data set [26]: in vivo. To be noted: rat, iv, 1 mg/kg.
Data set [27] is described as follows: in vivo. Conditions: rat, po, 3 mg/kg.
Data set [28] in a line: in vivo. To be noted: rat, po, 3 mg/kg. This is another data set of the same source.

What is called EC50 is the concentration needed to bring the measured effect to its halfway point. As a reminder, the Vd is a proportionality between amount in the body and measured concentration, not a real space. A low value points to confinement near the circulation. What is called half-life is how long it takes for the measured level to halve. Read a high half-life as slow decline. The term AUC(0-inf) denotes total exposure, with the tail of the curve extrapolated. A high value points to high exposure. In general, Cmax refers to the peak of the concentration-time curve. The term Tmax denotes the time from dosing to the highest level. A word on the bioavailability: it is dose-corrected exposure relative to a reference, in per cent. A low value points to poor availability. One may read the logD as the decadic logarithm of the distribution of all forms, ionised or not, between an organic phase and buffer at a given pH. Lower therefore signals a more hydrophilic compound. For orientation: pKa means the negative logarithm of the acid dissociation constant. Broadly, the fraction unbound is the share of the substance not bound to proteins or other matrix. A high value points to weak binding. As usually defined, the solubility is the concentration that dissolves in the medium under given conditions. Lower therefore signals a poorly soluble substance. Broadly, the Papp A→B is how fast a substance crosses the layer from the apical side. Read a low Papp A→B as poor permeation. What is called efflux ratio is the permeability from basolateral to apical divided by that in the opposite direction, in the common usage. `Cc1c(N2CC[C@@H](C3(N)CC3)C2)c(F)cc2cc(C(=O)O)c(=O)n(C3CC3)c12`: the EC50 in the data set on HepG2 and in the data set with K562 was above 100 µM in each case. Also, the Vd at 24 h in “in vivo [1]” turned out to be 0.75 L/kg. In “in vivo [2]”, the half-life at 24 h was 2.56 h. Further, the AUC(0-inf) at 24 h in “in vivo [3]” was determined as 5.85 µM·h. In addition, the maximum concentration (Cmax) at 24 h in the data set “in vivo [4]” was found to be 1710 nM. In addition, in “in vivo [5]”, the Tmax at 24 h came to 0.67 h. The bioavailability at 24 h in the data set “in vivo [6]” was 70%. The molecule further had a logD in “physchem [7]” of -0.34. This molecule also registered a pKa in “physchem [8]” of 5.1. Further, the unbound share (fraction unbound) at 4 h, 10 µM in “in vitro [9]” is 0.49; in the data set “in vitro [10]”, 0.3; in “in vitro [11]”, 0.21. The molecule further came in with a solubility at 24 h in the data set “physchem [12]” of 623 µg/mL (≈ 1620 µM). Besides, the Papp A→B at 2 h, 10 µM in “in vitro [13]” came out at 23.1 ×10⁻⁶ cm/s. In addition, the efflux ratio in the data set “in vitro [14]” came to 0.91. Moreover, the MIC was 0.06 µg/mL (≈ 0.156 µM) against Staphylococcus aureus [15]; 1 µg/mL (≈ 2.59 µM) in the data set with Staphylococcus aureus [16]; 0.5 µg/mL (≈ 1.3 µM) in the data set with Staphylococcus aureus [17]; 0.25 µg/mL (≈ 0.649 µM) against Enterococcus faecalis; at most 0.03 µg/mL in the data set with Streptococcus pneumoniae.
As to `Cc1c(N2CC[C@@H]([C@H](C)N)C2)c(F)cc2cc(O)c(=O)n(C3CC3)c12`, the results for the concentration for a half-maximal effect (EC50) in the data set with HepG2 and with K562 were 74 µM and 65 µM, respectively. The same molecule registered a pKa in “physchem [8]” of 8.2. This molecule also gave an MIC with Staphylococcus aureus [16] of 0.5 µg/mL (≈ 1.45 µM).
The clearance is the volume of plasma or blood freed of the substance per unit of time. Read a low clearance as inefficient removal. Consider `Cc1c(N2CCC(C3(N)CC3)C2)c(F)cc2c(CC(=O)N(C)C)cc(=O)n(C3CC3)c12` (stereo unspecified), for which, in “in vivo [18]”, the clearance at 24 h was 49.3 mL/min/kg. Besides, the Vd at 24 h in the data set “in vivo [19]” amounted to 3.3 L/kg. In “in vivo [20]”, the half-life at 24 h is 1.61 h. This molecule also gave a total exposure AUC(0-inf) at 24 h in the data set “in vivo [21]” of 0.26 µM·h. The same molecule had a maximum concentration (Cmax) at 24 h in “in vivo [22]” of 78 nM. In the data set “in vivo [23]”, the time to peak (Tmax) at 24 h is 1.17 h. In “in vivo [24]”, the bioavailability at 24 h worked out at 32.5%. Besides, the pH-dependent lipophilicity (logD) in “physchem [7]” turned out to be 0.27. Besides, the pKa in “physchem [8]” worked out at 8.5. Also, the values for the fraction unbound at 4 h, 10 µM in “in vitro [9]”, in the data set “in vitro [10]” and in the data set “in vitro [11]” were 0.58, 0.33 and 0.57, respectively. Further, the values for the MIC in the data set on Staphylococcus aureus [15] and with Staphylococcus aureus [16] were 2 µg/mL (≈ 4.69 µM) and 1 µg/mL (≈ 2.34 µM), respectively.
In “in vivo [19]”, `Cc1c(N2CCC(C3(N)CC3)C2)c(F)cc2c(Cc3n[nH]c(=O)o3)cc(=O)n(C3CC3)c12` (stereo unspecified) had a volume of distribution (Vd) at 24 h of 1.3 L/kg. In “in vivo [20]”, this molecule gave a half-life at 24 h of 0.99 h. In the data set “in vivo [21]”, this molecule came in with a total exposure AUC(0-inf) at 24 h of 0.12 µM·h. This molecule returned a Cmax at 24 h in “in vivo [22]” of 51 nM. In addition, the Tmax at 24 h in “in vivo [23]” was found to be 0.5 h. In addition, the bioavailability at 24 h in “in vivo [24]” was found to be 14.9%. The logD in “physchem [7]” came out at 0.24. Also, in “physchem [25]”, the pKa came to 7.2. Moreover, the figures for the fraction unbound at 4 h, 10 µM in the data set “in vitro [9]”, in the data set “in vitro [10]” and in “in vitro [11]” were 0.4, 0.15 and 0.27, respectively. The MIC in the data set on Staphylococcus aureus [15] worked out at 1 µg/mL (≈ 2.28 µM); in the data set with Staphylococcus aureus [16] it was 0.5 µg/mL (≈ 1.14 µM).
For `C[C@H]1COc2c(N3CC4CC(F)(F)C[C@@H](N)[C@H]4C3)c(F)cc3cc(C(=O)O)c(=O)n1c23` (single isomer, unassigned), the half-life at 24 h in the data set “in vivo [26]” was 3.46 h. In “in vivo [27]”, this molecule returned a Cmax at 24 h of 1700 nM. The Tmax at 24 h in “in vivo [28]” came out at 2 h. This molecule gave a logD in the data set “physchem [7]” of -0.26. This molecule returned a pKa in “physchem [8]” of 5.1. The fraction unbound at 4 h, 10 µM was 0.41 in the data set “in vitro [9]”, 0.42 in “in vitro [10]” and 0.18 in the data set “in vitro [11]”. The MIC against Staphylococcus aureus [15] was at most 0.03 µg/mL; with Staphylococcus aureus [16], 0.06 µg/mL (≈ 0.137 µM).
As for `C[C@H]1COc2c(N3CC4[C@H](C3)[C@H](N)CCC4(F)F)c(F)cc3cc(C(=O)O)c(=O)n1c23` (single isomer, unassigned), in “physchem [7]”, the logD was -0.78. The molecule further had a pKa in the data set “physchem [8]” of 5.1. The MIC is at most 0.03 µg/mL with Staphylococcus aureus [15] and 0.125 µg/mL (≈ 0.286 µM) in the data set with Staphylococcus aureus [16].
For `COc1c(N2C[C@@H]3CCCN[C@@H]3C2)c(F)cc2c(=O)c(C(=O)O)cn(C3CC3)c12` [MOXIFLOXACIN], the EC50 in the data set on HepG2 and with K562 was above 100 µM each time. Also, in the data set “physchem [8]”, the pKa is 6.7. Also, the MIC amounted to 0.06 µg/mL (≈ 0.149 µM) in the data set on Staphylococcus aureus [15] and 4 µg/mL (≈ 9.96 µM) against Staphylococcus aureus [16].
